Experiments:
Type in all cases: biochemical
recombinant rat PAI-1 = biological target: T1, recombinant rat PAI-1 (Rattus norvegicus, UniProt P20961); assay: Test Example 3: rat PAI-1 inhibitory activity (tPA fluorogenic substrate assay, pH7.4 HEPES buffer); conditions: for IC50: pH7.4 HEPES buffer, obtained from Table 7 results; for inhibition at 10 µM / inhibition at 3 µM: pH 7.4, read-out: Inhibition Rate of Rat PAI-1 Activity (%)
T1 construct: purchased Molecular Innovations, Inc
T1 sequence (P20961 24-402): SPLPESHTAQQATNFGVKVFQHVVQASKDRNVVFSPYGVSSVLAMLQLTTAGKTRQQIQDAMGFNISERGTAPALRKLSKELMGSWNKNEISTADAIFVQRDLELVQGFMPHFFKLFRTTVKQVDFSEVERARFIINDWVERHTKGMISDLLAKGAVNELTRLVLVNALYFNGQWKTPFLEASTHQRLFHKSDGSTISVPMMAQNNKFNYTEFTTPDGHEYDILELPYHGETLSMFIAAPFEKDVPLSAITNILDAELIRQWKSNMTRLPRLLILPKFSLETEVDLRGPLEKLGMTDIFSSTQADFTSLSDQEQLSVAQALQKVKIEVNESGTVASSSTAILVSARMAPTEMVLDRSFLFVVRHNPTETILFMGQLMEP
Description: (§1) Except using the pH7.4 HEPES buffer instead of pH7.5 Tris buffer, and the change of incubation time from 15 minutes to 10 minutes of the mixed solution added by two-chain tPA solution, tests were carried out similarly to the Test Example 1.

recombinant human PAI-1 [1] = biological target: T2, recombinant human PAI-1 (Homo sapiens, UniProt P05121); assay: Test Example 4: human PAI-1 inhibitory activity (amount of PAI-1 bound to plate-coated tPA, ELISA); conditions: PAI-1 50 ng/ml bound to coated tPA, read-out: Inhibition Rate of Human PAI-1 Activity (%); for inhibition at 0.1 µM: compound 0.1 μM; for inhibition at 0.3 µM: compound 0.3 μM
T2 construct: purchased Molecular Innovations, Inc
T2 sequence (P05121 24-402): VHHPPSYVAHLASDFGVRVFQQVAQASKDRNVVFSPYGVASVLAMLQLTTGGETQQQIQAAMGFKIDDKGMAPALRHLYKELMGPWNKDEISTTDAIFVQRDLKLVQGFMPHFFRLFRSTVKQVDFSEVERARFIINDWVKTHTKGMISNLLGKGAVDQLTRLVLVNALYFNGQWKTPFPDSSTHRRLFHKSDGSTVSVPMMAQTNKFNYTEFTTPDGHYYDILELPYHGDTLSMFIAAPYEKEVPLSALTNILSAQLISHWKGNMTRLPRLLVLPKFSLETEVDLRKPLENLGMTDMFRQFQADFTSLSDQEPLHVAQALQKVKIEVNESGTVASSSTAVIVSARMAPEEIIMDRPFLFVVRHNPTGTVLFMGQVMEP
Description: 100 μl of tPA solution where one-chain recombinant tPA (hereinafter refereed to as tPA; American diagnostica, inc.) diluted with Buffer A to achieve a concentration of 10 μg/ml was added to each well of 96-well plate (Nunc Maxisorp), incubated for one night at […] to coated with tPA. Then, after suction of tPA solution from the 96-well plate, rinsed successively with Buffer A and Buffer B.
To Buffer B, solutions of the present application compound dissolved with DMSO (final DMSO concentration: 0.2%) and recombinant human PAI-1 (Molecular Innovations, Inc.) were added and blended so that the final concentrations would be 0.1 to 3.0 μM and 50 ng/ml respectively, and were incubated for 15 minutes on ice. These mixed solutions were added to rinsed 96-well plates at 100 μl/well, and incubated for 60 minutes at room temperature. To prepare calibration curve, PAI-1 solutions without the present application compound (solutions where the final concentrations being 100, 50, 25, 12.5, 6.25, 3.13, 1.56 ng/ml PAI-1) were added at 100 μl/well, and were incubated for 60 minutes at room temperature, as standard.
After incubation, the reaction mixture was suction removed, and rinsed each well with Wash Buffer. Next, anti-human PAI-1 monoclonal antibody (PROGEN Inc.) diluted with Buffer C to be 3.0 μg/ml was added to the 96-well plate at 100 μl/well, and incubated for 1 hour at room temperature. After rinsing each well with Wash Buffer, alkaline phosphatase-labeled goat anti-mouse IgG (H+L) (Jackson ImmunoResearch, Inc.) diluted with Buffer D to be 0.12 μg/ml was added at 100 μl/well, and incubated for 1 hour at room temperature. After rinsing each well with Wash Buffer, 1.0 mg/ml p-Nitrophenyl Phosphate (SIGMA) was added to the 96-well plate at 100 μl/well to start the reaction. After 30 to 60 minutes, 25 μl of 0.5 N NaOH was added to stop the reaction, and the absorbance was measured at 405 nm using a multiplate reader (GENios; TECAN G.M.B.H.).
Based on the calibration curve prepared from the standard wells, amounts of PAI-1 bound to tPA in the wells treated with the present application compound were calculated, and the PAI-1 inhibition rates by the present application compounds were obtained by the following equation. [PAI-1 Inhibition Rate (%)]=[1-(amount of PAI-1 bound to tPA on the well treated with the present application compound)/(amount of PAI-1 bound to tPA on the well treated with PAI-1 solution without present application compound (solution with the final concentration of 50 ng/ml PAI-1)]×100 <Composition of Buffer A> 0.1 M Tris-HCl-150 150 mM NaCl pH 7.7 <Composition of Buffer B> 50 mM sodium phosphate 0.1 M NaCl 1 mM EDTA pH 6.6 <Composition of Buffer C> 50 mM sodium phosphate 100 mM NaCl pH 7.4 <Composition of Buffer D> 0.01 M Tris-HCl 0.25 M NaCl pH 8.0 <Composition of Wash Buffer> 0.05% Tween 20 0.1% BSA in Buffer A <Composition of p-Nitrophenyl Phosphate Solution> 1 M Diethanolamine 0.5 mM MgCl2 p-Nitrophenyl phosphate pH 9.8

recombinant human PAI-1 [2] = biological target: T2, recombinant human PAI-1; assay: Test Example 2: human PAI-1 inhibitory activity (tPA fluorogenic substrate assay, pH7.4 HEPES buffer); conditions: for IC50: pH7.4 HEPES buffer, obtained from Table 5 results; for inhibition at 3 µM: pH 7.4, read-out: Inhibition Rate of Human PAI-1 Activity (%)
Description: as §1
<Compotion of pH7.4 HEPES Buffer>
0.1% Polyethylene glycol 8,000 (Hampton Research Corporation)
2 mM Dimethyldecylphoshine oxide [Apo-10] (Fluka Corporation)

| SMILES | IC50 (recombinant rat PAI-1) [nM] | inhibition at 0.1 µM (recombinant human PAI-1 [1]) [%] | IC50 (recombinant human PAI-1 [2]) [nM] | inhibition at 10 µM (recombinant rat PAI-1) [%] | inhibition at 3 µM (recombinant rat PAI-1) [%] | inhibition at 0.3 µM (recombinant human PAI-1 [1]) [%] | inhibition at 3 µM (recombinant human PAI-1 [2]) [%] |
| --- | --- | --- | --- | --- | --- | --- | --- |
| CC(C)(C)c1ccc(CN(C(=O)C(=O)O)c2ccc(-c3ccc(OC(F)(F)F)cc3)cc2)cc1 [compound 8, N-[4-(tert-butyl)benzyl]-N-[4′-(trifluoromethoxy)biphenyl-4-yl]oxamic Acid] | 3130 | 0 | 1630 |  |  |  |  |
| CC(C)(C)c1ccc(CN(C(=O)C(=O)O)c2cccc(-c3ccc(OC(F)(F)F)cc3)c2)cc1 [compound 9, N-[4-(tert-butyl)benzyl]-N-[4′-(trifluoromethoxy)biphenyl-3-yl]oxamic Acid] | 2760 | 0 | 1710 | > 99 |  |  |  |
| CC(C)(C)c1ccc(CN(C(=O)C(=O)O)c2cc(-c3ccc(OC(F)(F)F)cc3)cc(C(F)(F)F)c2)cc1 [compound 18, N-[4-(tert-butyl)benzyl]-N-[4′-(trifluoromethoxy)-5-(trifluoromethyl)biphenyl-3-yl]oxamic Acid] | 1610 | 0 | 1250 |  |  |  |  |
| CC(C)(C)c1ccc(CN(C(=O)C(=O)O)c2ccc(-c3ccc(OC(F)(F)F)cc3)cc2Cl)cc1 [compound 26, N-[4-(tert-butyl)benzyl]-N-[3-chloro-4′-(trifluoromethoxy)biphenyl-4-yl]oxamic Acid] | 2160 |  | 1170 |  |  |  |  |
| CC(C)(C)c1ccc(CN(C(=O)C(=O)O)c2cc(C(F)(F)F)ccc2-c2ccc(OC(F)(F)F)cc2)cc1 [compound 48, N-[4-(tert-butyl)benzyl]-N-[4′-(trifluoromethoxy)-4-(trifluoromethyl)biphenyl-2-yl]oxamic Acid] | 2450 |  | 1140 |  | 61 |  |  |
| CC(C)(C)c1ccc(CN(C(=O)C(=O)O)c2cccc(Oc3ccc(OC(F)(F)F)cc3)c2)cc1 [compound 52, N-[4-(tert-butyl)benzyl]-N-{3-[4-(trifluoromethoxy)phenoxy]phenyl}oxamic Acid] | 3040 |  | 1840 |  |  |  |  |
| CC(C)(C)c1ccc(CN(C(=O)C(=O)O)c2ccc(Oc3ccc(OC(F)(F)F)cc3)cc2C(F)(F)F)cc1 [compound 54, N-[4-(tert-butyl)benzyl]-N-{4-[4-(trifluoromethoxy)phenoxy]-2-(trifluoromethyl)phenyl}oxamic Acid] | 2040 | 0 | 1320 |  |  | 0 |  |
| Cc1ccc(N(Cc2ccc(C(C)(C)C)cc2)C(=O)C(=O)O)cc1-c1ccc(OC(F)(F)F)cc1 [compound 56, N-[4-(tert-butyl)benzyl]-N-[2-methyl-4′-(trifluoromethoxy)biphenyl-5-yl]oxamic Acid] | 1870 | 4 | 1400 | > 99 |  |  |  |
| CC(C)(C)c1ccc(COc2ccc(-c3ccc(OC(F)(F)F)cc3)cc2N(Cc2ccccc2)C(=O)C(=O)O)cc1 [compound 59, N-benzyl-N-{4-[4-(tert-butyl)benzyloxy]-4′-(trifluoromethoxy)biphenyl-3-yl}oxamic Acid] | 1110 |  | 660 | > 99 | > 99 |  | > 99 |
| CCCOc1ccc(N(Cc2ccc(C(C)(C)C)cc2)C(=O)C(=O)O)cc1-c1ccc(OC(F)(F)F)cc1 [compound 65, N-[4-(tert-butyl)benzyl]-N-[2-propoxy-4′-(trifluoromethoxy)biphenyl-5-yl]oxamic Acid] | 1720 | 0 | 1150 |  |  |  | > 99 |
| CC(C)(C)c1ccc(CN(C(=O)C(=O)O)c2ccc(Cl)c(-c3ccc(OC(F)(F)F)cc3)c2)cc1 [compound 66, N-[4-(tert-butyl)benzyl]-N-[2-chloro-4′-(trifluoromethoxy)biphenyl-5-yl]oxamic Acid] | 1550 | 6 | 1140 |  |  |  | > 99 |
| CCCOc1ccc(-c2ccc(OC(F)(F)F)cc2)cc1N(Cc1ccc(C(C)(C)C)cc1)C(=O)C(=O)O [compound 68, N-[4-(tert-butyl)benzyl]-N-[4-propoxy-4′-(trifluoromethoxy)biphenyl-3-yl]oxamic Acid] | 1790 |  | 1180 | > 99 |  |  |  |
| CCCCOc1ccc(-c2ccc(OC(F)(F)F)cc2)cc1N(Cc1ccc(C(C)(C)C)cc1)C(=O)C(=O)O [compound 69, N-[4-(tert-butyl)benzyl]-N-[4-butoxy-4′-(trifluoromethoxy)biphenyl-3-yl]oxamic Acid] | 1280 | 0 | 880 | > 99 |  |  |  |
| COc1cc(OC)c(N(Cc2ccc(C(C)(C)C)cc2)C(=O)C(=O)O)cc1-c1ccc(OC(F)(F)F)cc1 [compound 70, N-[4-(tert-butyl)benzyl]-N-[2,4-dimethoxy-4′-(trifluoromethoxy)biphenyl-5-yl]oxamic Acid] | 2300 | 0 | 1320 | > 99 |  | 0 |  |
| CC(C)(C)c1ccc(CN(C(=O)C(=O)O)c2ccc(Cl)cc2-c2ccc(OC(F)(F)F)cc2)cc1 [compound 72, N-[4-(tert-butyl)benzyl]-N-[5-chloro-4′-(trifluoromethoxy)biphenyl-2-yl]oxamic Acid] | 2140 |  | 1060 |  |  |  | > 99 |
| CCCCOc1ccc(N(Cc2ccc(C(C)(C)C)cc2)C(=O)C(=O)O)cc1-c1ccc(OC(F)(F)F)cc1 [compound 73, N-[4-(tert-butyl)benzyl]-N-[2-butoxy-4′-(trifluoromethoxy)biphenyl-5-yl]oxamic Acid] | 1820 |  | 1130 |  |  |  | > 99 |
| CCCCCOc1ccc(-c2ccc(OC(F)(F)F)cc2)cc1N(Cc1ccc(C(C)(C)C)cc1)C(=O)C(=O)O [compound 74, N-[4-(tert-butyl)benzyl]-N-[4-pentyloxy-4′-(trifluoromethoxy)biphenyl-3-yl]oxamic acid] | 1140 | 0 | 820 | > 99 |  |  |  |
| CCC(CC)Oc1ccc(N(Cc2ccc(C(C)(C)C)cc2)C(=O)C(=O)O)cc1-c1ccc(OC(F)(F)F)cc1 [compound 77, N-[4-(tert-butyl)benzyl]-N-[2-(1-ethylpropoxy)-4′-(trifluoromethoxy)biphenyl-5-yl]oxamic Acid] | 1420 | 12 | 1040 |  |  |  | > 99 |
| CCCOc1ccc(N(Cc2ccc(C(C)(C)C)cc2)C(=O)C(=O)O)c(-c2ccc(OC(F)(F)F)cc2)c1 [compound 78, N-[4-(tert-butyl)benzyl]-N-[5-propoxy-4′-(trifluoromethoxy)biphenyl-2-yl]oxamic Acid] | 1840 | 0 | 1080 |  |  |  | > 99 |

From patent publication US7884234B2, “N-phenyloxamide derivatives” (Institute of Medicinal Molecular Design, inc., priority 2006, dated 2011)
